Experimental data published in patent publication US20230113037A1 (Bayer Aktiengesellschaft, priority 2019, published 2023).
Like-named read-outs stand apart in the source and are kept apart here.

Legend:
AHR [1] = biological target: T1, AHR (Mus musculus, UniProt P30561); test: In vitro assay 3: antagonism in mouse cell line (AHR transactivation, firefly luciferase reporter, kynurenic acid prestimulated); format: cell-based
T1 sequence (P30561 1-848 P471L/N533S/M589L): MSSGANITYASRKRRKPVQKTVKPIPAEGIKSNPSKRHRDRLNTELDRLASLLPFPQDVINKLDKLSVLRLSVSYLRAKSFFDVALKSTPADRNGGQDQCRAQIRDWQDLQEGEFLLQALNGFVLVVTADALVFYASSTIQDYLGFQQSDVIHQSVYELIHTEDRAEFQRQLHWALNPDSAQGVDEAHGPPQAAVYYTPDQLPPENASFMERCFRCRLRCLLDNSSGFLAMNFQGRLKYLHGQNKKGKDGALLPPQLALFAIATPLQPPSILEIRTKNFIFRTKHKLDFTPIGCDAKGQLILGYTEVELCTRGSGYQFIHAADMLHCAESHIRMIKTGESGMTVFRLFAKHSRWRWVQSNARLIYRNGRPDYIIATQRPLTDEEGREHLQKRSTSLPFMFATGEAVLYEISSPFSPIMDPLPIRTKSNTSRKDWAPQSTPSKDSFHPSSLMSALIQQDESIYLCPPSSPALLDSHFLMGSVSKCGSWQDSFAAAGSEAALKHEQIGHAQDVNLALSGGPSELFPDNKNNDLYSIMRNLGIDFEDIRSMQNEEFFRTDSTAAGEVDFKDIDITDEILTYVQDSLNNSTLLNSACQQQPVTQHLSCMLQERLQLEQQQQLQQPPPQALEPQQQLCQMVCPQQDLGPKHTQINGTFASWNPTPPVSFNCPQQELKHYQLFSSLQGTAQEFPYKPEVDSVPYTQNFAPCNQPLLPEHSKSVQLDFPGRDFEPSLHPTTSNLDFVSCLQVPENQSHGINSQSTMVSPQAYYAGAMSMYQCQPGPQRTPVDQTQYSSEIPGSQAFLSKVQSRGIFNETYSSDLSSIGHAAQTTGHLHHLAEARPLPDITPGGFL
In short: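 Kynurenic acid-prestimulated mouse reporter cells; stable AHR-inducible firefly luc construct with DRE sites in promoter. No-agonist wells = positive inhibition ctrl. Luminescence normalized to pos/neg ctrls; n>1 reported as mean or median.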

AHR [2] = biological target: T2, AHR (Homo sapiens, UniProt P35869); test: In vitro assay 1: antagonism in human cell line (AHR transactivation, firefly luciferase reporter, kynurenic acid prestimulated); format: cell-based; settings: AHR Antagonism Human IC50 [M], firefly luciferase reporter
T2 construct: U87 MG glioblastoma cells (ATCC #HTB-14) endogenously expressing AHR; endogenous in cells; host or cells: U87 MG glioblastoma cells (ATCC #HTB-14)
T2 sequence (P35869 11-848): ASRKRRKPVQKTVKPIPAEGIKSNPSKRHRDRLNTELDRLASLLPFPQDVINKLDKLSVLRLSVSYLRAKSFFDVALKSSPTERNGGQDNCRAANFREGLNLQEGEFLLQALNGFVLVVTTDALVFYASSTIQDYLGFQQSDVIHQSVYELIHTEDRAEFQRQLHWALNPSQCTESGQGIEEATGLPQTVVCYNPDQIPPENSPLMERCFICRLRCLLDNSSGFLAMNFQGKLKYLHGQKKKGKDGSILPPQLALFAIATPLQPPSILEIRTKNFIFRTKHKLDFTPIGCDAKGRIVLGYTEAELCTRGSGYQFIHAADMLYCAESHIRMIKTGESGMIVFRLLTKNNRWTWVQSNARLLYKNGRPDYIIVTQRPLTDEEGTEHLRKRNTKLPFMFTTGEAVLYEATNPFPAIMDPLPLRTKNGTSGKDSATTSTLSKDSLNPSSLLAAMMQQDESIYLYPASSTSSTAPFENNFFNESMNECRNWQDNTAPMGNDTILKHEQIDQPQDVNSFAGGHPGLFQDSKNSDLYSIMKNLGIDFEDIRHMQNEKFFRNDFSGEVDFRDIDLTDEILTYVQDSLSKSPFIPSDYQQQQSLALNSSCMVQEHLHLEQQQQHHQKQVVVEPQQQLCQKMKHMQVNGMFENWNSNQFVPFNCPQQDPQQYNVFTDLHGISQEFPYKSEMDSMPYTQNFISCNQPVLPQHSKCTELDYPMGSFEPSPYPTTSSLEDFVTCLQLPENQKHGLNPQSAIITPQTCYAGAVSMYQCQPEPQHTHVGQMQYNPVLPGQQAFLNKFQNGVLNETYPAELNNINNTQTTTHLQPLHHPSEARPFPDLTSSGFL
In short: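 Antagonism measured as loss of kynurenic acid-driven firefly luciferase from DRE reporter in stably transfected U87 MG cells; constitutive Renilla signal monitors cytotoxicity. Positive/negative control normalization, staurosporine 5 μM with 150 μM kynurenic acid as inhibition control; replicates given as mean or median.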

[3] = Hepa 1c1c7 cells, 200 μM kynurenic acid, 20 hours, firefly luciferase reporter, read-out: AHR Antagonism Mouse IC50

| Structure (SMILES) | IC50 (AHR [1]; [3]) [nM] | IC50 (AHR [2]) [M] | IC50 (AHR [1]; read-out: AHR Antagonism Mouse IC50, Hepa 1c1c7 cells, 200 μM kynurenic acid, 20 hours, firefly luciferase reporter) [nM] |
| --- | --- | --- | --- |
| C[C@@H](Nc1nc2c(Br)cccc2c2nc(-c3cnn(C)c3)nn12)C(=O)NCCN1CCN(C(=O)OC(C)(C)C)CC1 [Example 891, tert-butyl 4-[2-({N-[7-bromo-2-(1-methyl-1H-pyrazol-4-yl)[1,2,4]triazolo[1,5-c]quinazolin-5-yl]-D-alanyl}amino)ethyl]piperazine-1-carboxylate] | 66.8 | 5.75e-08 | – |
| C[C@@H](Nc1nc2c(Br)cccc2c2nc(-c3cnn(C)c3)nn12)C(=O)NCCN1CCCCC1 [Example 896, N^2-[7-bromo-2-(1-methyl-1H-pyrazol-4-yl)[1,2,4]triazolo[1,5-c]quinazolin-5-yl]-N-[2-(piperidin-1-yl)ethyl]-D-alaninamide] | 133 | 2.72e-07 | – |
| COc1ccc(-c2nc3c4ccccc4nc(N[C@H](C)C(=O)NCCN4CCCCC4)n3n2)cc1 [Example 897, N^2-[2-(4-methoxyphenyl)[1,2,4]triazolo[1,5-c]quinazolin-5-yl]-N-[2-(piperidin-1-yl)ethyl]-D-alaninamide] | 28.5 | 4.02e-08 | – |
| C[C@@H](Nc1nc2c(Br)cccc2c2nc(-c3cnn(C)c3)nn12)C(=O)N1C[C@H]2C[C@@H]1CO2 [Example 898, (2R)-2-{[7-bromo-2-(1-methyl-1H-pyrazol-4-yl)[1,2,4]triazolo[1,5-c]quinazolin-5-yl]amino}-1-[(1R,4R)-2-oxa-5-azabicyclo[2.2.1]heptan-5-yl]propan-1-one] | 25.2 | 1.2e-07 | – |
| C[C@@H](Nc1nc2c(Br)cccc2c2nc(-c3cnn(C)c3)nn12)C(=O)N1C[C@@H]2C[C@H]1CN2C [Example 900] | 72.3 | 4.4e-08 | – |
| C[C@@H](Nc1nc2c(Br)cccc2c2nc(-c3cnn(C)c3)nn12)C(=O)N1C[C@H]2C[C@@H]1CN2C [Example 902] | 95 | 8e-08 | – |
| C[C@@H]1CN(C(=O)[C@@H](C)Nc2nc3c(Br)cccc3c3nc(-c4cnn(C)c4)nn23)CCO1 [Example 906, (2R)-2-{[7-bromo-2-(1-methyl-1H-pyrazol-4-yl)[1,2,4]triazolo[1,5-c]quinazolin-5-yl]amino}-1-[(2R)-2-methylmorpholin-4-yl]propan-1-one] | 19.5 | 2.3e-08 | – |
| C[C@H]1CN(C(=O)[C@@H](C)Nc2nc3c(Br)cccc3c3nc(-c4cnn(C)c4)nn23)CCO1 [Example 908, (2R)-2-{[7-bromo-2-(1-methyl-1H-pyrazol-4-yl)[1,2,4]triazolo[1,5-c]quinazolin-5-yl]amino}-1-[(2S)-2-methylmorpholin-4-yl]propan-1-one] | 18.8 | 2.87e-08 | – |
| C[C@@H]1CN(C(=O)[C@@H](C)Nc2nc3c(Br)cccc3c3nc(-c4cnn(C)c4)nn23)CCN1C [Example 910, (2R)-2-{[7-bromo-2-(1-methyl-1H-pyrazol-4-yl)[1,2,4]triazolo[1,5-c]quinazolin-5-yl]amino}-1-[(3R)-3,4-dimethylpiperazin-1-yl]propan-1-one] | 24.7 | 2.4e-08 | – |
| COc1ccc(-c2nc3c4cccc(Br)c4nc(N[C@H](C)C(=O)N4CCOC[C@H]4C)n3n2)cc1 [Example 911, (2R)-2-{[7-bromo-2-(4-methoxyphenyl)[1,2,4]triazolo[1,5-c]quinazolin-5-yl]amino}-1-[(3R)-3-methylmorpholin-4-yl]propan-1-one] | – | 1.57e-09 | 1.98 |

Continued, in another order:

| IC50 (AHR [1]; [3]) [nM] | IC50 (AHR [2]) [M] | Structure (SMILES) | IC50 (AHR [1]; read-out: AHR Antagonism Mouse IC50, Hepa 1c1c7 cells, 200 μM kynurenic acid, 20 hours, firefly luciferase reporter) [nM] |
| --- | --- | --- | --- |
| 18.2 | 2.65e-08 | COC(=O)N1CCN(C(=O)[C@@H](C)Nc2nc3c(Br)cccc3c3nc(-c4cnn(C)c4)nn23)CC1 [Example 893, methyl 4-{N-[7-bromo-2-(1-methyl-1H-pyrazol-4-yl)[1,2,4]triazolo[1,5-c]quinazolin-5-yl]-D-alanyl}piperazine-1-carboxylate] | – |
| 1.33 | 2.01e-09 | COC(=O)N1CCN(C(=O)[C@@H](C)Nc2nc3c(Br)cccc3c3nc(-c4ccc(OC)cc4)nn23)CC1 [Example 894, methyl 4-{N-[7-bromo-2-(4-methoxyphenyl)[1,2,4]triazolo[1,5-c]quinazolin-5-yl]-D-alanyl}piperazine-1-carboxylate] | – |
| 17.3 | 1.18e-08 | COc1ccc(-c2nc3c4cccc(Br)c4nc(N[C@H](C)C(=O)NCCN4CCCCC4)n3n2)cc1 [Example 895, N^2-[7-bromo-2-(4-methoxyphenyl)[1,2,4]triazolo[1,5-c]quinazolin-5-yl]-N-[2-(piperidin-1-yl)ethyl]-D-alaninamide] | – |
| 0.885 | 1.12e-09 | COc1ccc(-c2nc3c4cccc(Br)c4nc(N[C@H](C)C(=O)N4C[C@H]5C[C@@H]4CO5)n3n2)cc1 [Example 899, (2R)-2-{[7-bromo-2-(4-methoxyphenyl)[1,2,4]triazolo[1,5-c]quinazolin-5-yl]amino}-1-[(1R,4R)-2-oxa-5-azabicyclo[2.2.1]heptan-5-yl]propan-1-one] | – |
| 4.79 | 2.88e-09 | COc1ccc(-c2nc3c4cccc(Br)c4nc(N[C@H](C)C(=O)N4C[C@@H]5C[C@H]4CN5C)n3n2)cc1 [Example 901, (2R)-2-{[7-bromo-2-(4-methoxyphenyl)[1,2,4]triazolo[1,5-c]quinazolin-5-yl]amino}-1-[(1S,4S)-5-methyl-2,5-diazabicyclo[2.2.1]heptan-2-yl]propan-1-one] | – |
| 6.59 | 4.09e-09 | COc1ccc(-c2nc3c4cccc(Br)c4nc(N[C@H](C)C(=O)N4C[C@H]5C[C@@H]4CN5C)n3n2)cc1 [Example 903, (2R)-2-{[7-bromo-2-(4-methoxyphenyl)[1,2,4]triazolo[1,5-c]quinazolin-5-yl]amino}-1-[(1R,4R)-5-methyl-2,5-diazabicyclo[2.2.1]heptan-2-yl]propan-1-one] | – |
| 1.39 | 9.93e-10 | COc1ccc(-c2nc3c4cccc(Br)c4nc(N[C@H](C)C(=O)N4CCO[C@H](C)C4)n3n2)cc1 [Example 907, (2R)-2-{[7-bromo-2-(4-methoxyphenyl)[1,2,4]triazolo[1,5-c]quinazolin-5-yl]amino}-1-[(2R)-2-methylmorpholin-4-yl]propan-1-one] | – |
| 1.68 | 2.36e-09 | COc1ccc(-c2nc3c4cccc(Br)c4nc(N[C@H](C)C(=O)N4CCO[C@@H](C)C4)n3n2)cc1 [Example 909, (2R)-2-{[7-bromo-2-(4-methoxyphenyl)[1,2,4]triazolo[1,5-c]quinazolin-5-yl]amino}-1-[(2S)-2-methylmorpholin-4-yl]propan-1-one] | – |
| 13.7 | 2.16e-08 | C[C@@H]1COCCN1C(=O)[C@@H](C)Nc1nc2c(Br)cccc2c2nc(-c3cnn(C)c3)nn12 [Example 912, (2R)-2-{[7-bromo-2-(1-methyl-1H-pyrazol-4-yl)[1,2,4]triazolo[1,5-c]quinazolin-5-yl]amino}-1-[(3R)-3-methylmorpholin-4-yl]propan-1-one] | – |
